Some test systems named below: MDA-MB-435; DU-145 prostate; OVCAR-3 ovarian; IGROV1 ovarian; NCI-H23 lung; RXF 393 renal; HCT-116 colon; SK-MEL-5 melanoma; MDA-MB-231 breast; UACC-257 melanoma.
What all share (assay): DTP human tumour cell line panel, 48 h

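Tested at 5 concentrations; 48 h exposure; 96-well plates; endpoints linearly interpolated, else capped at highest concentration. At the GI50, growth is halved. TGI is the concentration that stops growth completely.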 Some results are limits rather than exact numbers.

In the case of `CCCCCCCc1cc2c3c(nc4ccccc42)C(=O)c2cccnc2-c3n1`, the GI50 is 1960 nM in the test with MDA-MB-435; 2540 nM in the test on DU-145 prostate; 2300 nM in the test on OVCAR-3 ovarian; 3280 nM in the test on IGROV1 ovarian; 10.8 µM in the test on NCI-H23 lung; 5670 nM in the test with RXF 393 renal. Besides, the GI50 was 375 nM in the test on HCT-116 colon, 4.16 µM with SK-MEL-5 melanoma, 6.71 µM in the test with MDA-MB-231 breast and 1.96 µM in the test on UACC-257 melanoma. The total growth inhibition concentration (TGI) in the test with MDA-MB-435 stood at 4.33 µM; with DU-145 prostate it was 6.63 µM; in the test on OVCAR-3 ovarian it was 8.97 µM; in the test on IGROV1 ovarian, 15.1 µM; in the test on NCI-H23 lung it was 25.6 µM; in the test on RXF 393 renal it was 11.1 µM. The TGI in the test on HCT-116 colon is 3.35 µM; with SK-MEL-5 melanoma it was 8.37 µM; in the test on MDA-MB-231 breast it was 20 µM; with UACC-257 melanoma it was 3.46 µM.

On to `O=C1CCc2c(sc3[nH]c(=S)n(Cc4ccc(Cl)cc4)c(=O)c23)C1`, for which the GI50 with MDA-MB-435 is 1440 nM; in the test on DU-145 prostate, 2470 nM; in the test on OVCAR-3 ovarian, 385 nM; in the test with IGROV1 ovarian it was 454 nM; in the test on NCI-H23 lung, 0.345 µM; with RXF 393 renal it was 401 nM. Further, the GI50 is 366 nM in the test on HCT-116 colon, 0.362 µM in the test on SK-MEL-5 melanoma, 0.379 µM in the test on MDA-MB-231 breast and 1.33 µM in the test with UACC-257 melanoma. Besides, the TGI in the test on MDA-MB-435 was 8.33 µM; in the test with DU-145 prostate, over 100 µM; in the test on OVCAR-3 ovarian it was over 55.6 µM; with IGROV1 ovarian it was over 100 µM; in the test on NCI-H23 lung, 2.68 µM; with RXF 393 renal, 5.05 µM. Besides, the TGI was over 100 µM with HCT-116 colon, 1.13 µM with SK-MEL-5 melanoma, 1.68 µM in the test with MDA-MB-231 breast and 5.72 µM in the test with UACC-257 melanoma.

As for `O=C(/C=C/c1ccc(C(F)(F)F)cc1)c1ccc(Nc2nc(NCCO)nc(Nc3ccc(Cl)cc3)n2)cc1`, the GI50 in the test on MDA-MB-435 was 3460 nM; in the test on DU-145 prostate it was 6080 nM; in the test with OVCAR-3 ovarian it was 2750 nM; in the test on IGROV1 ovarian, 4920 nM; in the test with NCI-H23 lung it was 10.7 µM; in the test on RXF 393 renal, 1820 nM. Besides, the GI50 in the test on HCT-116 colon is 1480 nM; in the test with SK-MEL-5 melanoma, 14 µM; in the test on MDA-MB-231 breast, 4.21 µM; in the test with UACC-257 melanoma, 10.1 µM. Also, the TGI stood at 12.8 µM in the test with MDA-MB-435; 18.7 µM in the test on DU-145 prostate; 8.12 µM in the test with OVCAR-3 ovarian; 16.2 µM in the test with IGROV1 ovarian; 26.2 µM with NCI-H23 lung; 4.16 µM in the test on RXF 393 renal. Also, the concentration for total growth inhibition (TGI) in the test with HCT-116 colon worked out at 2.83 µM; in the test on SK-MEL-5 melanoma it was 29.6 µM; with MDA-MB-231 breast, 16.1 µM; with UACC-257 melanoma it was 31.2 µM.

Regarding `O=C1C[C@@H]2/C(=C(O)\C=C\c3ccccc3)C(=O)C=C[C@@H]2O1`, the GI50 in the test on MDA-MB-435 is 1610 nM; in the test with DU-145 prostate, 515 nM; in the test on OVCAR-3 ovarian it was 497 nM; in the test on IGROV1 ovarian, 385 nM; with NCI-H23 lung, 1.78 µM; in the test with RXF 393 renal it was 1470 nM. For the same compound, the 50% growth inhibitory concentration (GI50) with HCT-116 colon was 382 nM; in the test on SK-MEL-5 melanoma it was 2.01 µM; in the test with MDA-MB-231 breast it was 2.13 µM; with UACC-257 melanoma it was 1.83 µM. Besides, the concentration for total growth inhibition (TGI) in the test with MDA-MB-435 is 3.49 µM; with DU-145 prostate, 1.93 µM; in the test with OVCAR-3 ovarian, 1.82 µM; in the test with IGROV1 ovarian, 1.56 µM; with NCI-H23 lung, 3.95 µM; in the test with RXF 393 renal, 2.83 µM. The TGI in the test on HCT-116 colon amounted to 1.6 µM; in the test on SK-MEL-5 melanoma, 4.82 µM; in the test on MDA-MB-231 breast, 4.21 µM; in the test on UACC-257 melanoma, 3.9 µM.

Turning to `O=C1c2ccccc2S(=O)(=O)c2cc(-c3nn[nH]n3)ccc21`, the concentration for total growth inhibition (TGI) in the test with MDA-MB-435, in the test on DU-145 prostate, in the test on OVCAR-3 ovarian, with IGROV1 ovarian, with NCI-H23 lung and in the test with RXF 393 renal was over 100 µM throughout. Moreover, the concentration for total growth inhibition (TGI) in the test with HCT-116 colon, in the test with SK-MEL-5 melanoma, with MDA-MB-231 breast and in the test with UACC-257 melanoma was over 100 µM throughout.

As to `COc1ccc(-c2ccc(-c3ccc(C(=N)N)o3)o2)cc1`, the GI50 in the test on MDA-MB-435 is 293 nM; in the test on DU-145 prostate, 1910 nM; with OVCAR-3 ovarian it was 924 nM; in the test on IGROV1 ovarian it was 1730 nM; with NCI-H23 lung, 4.34 µM; in the test with RXF 393 renal, 2120 nM. The GI50 with HCT-116 colon is 1070 nM; in the test with SK-MEL-5 melanoma, 2.8 µM; in the test with MDA-MB-231 breast, 1.9 µM; in the test with UACC-257 melanoma, 11.1 µM. For the same compound, the TGI in the test with MDA-MB-435 is 1.12 µM; in the test on DU-145 prostate, 4.86 µM; with OVCAR-3 ovarian, 2.74 µM; in the test with IGROV1 ovarian, 7.03 µM; in the test on NCI-H23 lung, 18.3 µM; in the test on RXF 393 renal it was 8.81 µM. For the same compound, the TGI in the test with HCT-116 colon came to 3.01 µM; with SK-MEL-5 melanoma, 12.1 µM; in the test on MDA-MB-231 breast it was 4.28 µM; in the test with UACC-257 melanoma it was 24.7 µM.

Turning to `O=c1c(O)c(-c2cc(O)c(O)c(O)c2)oc2cc(O)cc(O)c12`, the concentration for total growth inhibition (TGI) in the test on MDA-MB-435 was 34.8 µM; in the test with DU-145 prostate it was over 100 µM; in the test with OVCAR-3 ovarian, 89.7 µM; in the test with IGROV1 ovarian, over 100 µM; with NCI-H23 lung, 35.4 µM; with RXF 393 renal, 43.4 µM. Also, the concentration for total growth inhibition (TGI) is 34.1 µM in the test with HCT-116 colon, over 100 µM in the test with SK-MEL-5 melanoma, 35.8 µM in the test with MDA-MB-231 breast and over 100 µM in the test on UACC-257 melanoma.

With `C#CCOc1cccc(Nc2ncnc3cc(NC(=O)CCl)ccc23)c1`, the GI50 in the test on MDA-MB-435 was 3100 nM; in the test with DU-145 prostate, 10000 nM; in the test with OVCAR-3 ovarian, 1840 nM; in the test with IGROV1 ovarian it was 2780 nM; with NCI-H23 lung, 3.4 µM; in the test on RXF 393 renal, 13200 nM. The GI50 with HCT-116 colon was 1960 nM; with SK-MEL-5 melanoma, 6.31 µM; in the test with MDA-MB-231 breast it was 5.28 µM; with UACC-257 melanoma it was 15.4 µM. Besides, the TGI with MDA-MB-435 stood at 16.4 µM; in the test on DU-145 prostate, 21.6 µM; with OVCAR-3 ovarian, 4.35 µM; with IGROV1 ovarian it was 11.9 µM; in the test on NCI-H23 lung, 16.7 µM; with RXF 393 renal, 27.7 µM. Besides, the total growth inhibition concentration (TGI) worked out at 10.2 µM in the test with HCT-116 colon, 19.4 µM in the test with SK-MEL-5 melanoma, 19.9 µM with MDA-MB-231 breast and 32.3 µM in the test with UACC-257 melanoma.

For orientation: GI50 means the concentration that inhibits growth by half. By TGI is commonly meant the concentration giving total growth inhibition.

For the origin of these results see PubChem BioAssay (NCI).
